From patent US8063071B2 (GlaxoSmithKline, LLC, priority 2007, dated 2011) come the findings set out here.

The subject of assay [1] is human monocyte stimulated cytokine production (TNF-α). The assay can be described thus: Monocyte assay (LPS-stimulated TNF-α production). The format is cell-based. Particulars: 24 h, 200 ng/mL LPS, TNF-α by ELISA. The procedure, abridged:
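TNF-α release was measured by ELISA after 24 hrs at 37 C. Cells were stimulated with 200 ng/mL E. coli LPS, with compound added 30 minutes beforehand (0.1% DMSO vehicle). Cells were Ficoll/MACS-isolated CD14+ human monocytes adhered at 1×10^6 cells/mL, and viability was checked by trypan blue.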

The target of assay [2] is T1, Recombinant human IKKβ (residues 1-737) (Homo sapiens, UniProt O14920).
T1 construct: Recombinant human IKKβ (residues 1-737); GST (C); made in house
T1 sequence (O14920 1-737): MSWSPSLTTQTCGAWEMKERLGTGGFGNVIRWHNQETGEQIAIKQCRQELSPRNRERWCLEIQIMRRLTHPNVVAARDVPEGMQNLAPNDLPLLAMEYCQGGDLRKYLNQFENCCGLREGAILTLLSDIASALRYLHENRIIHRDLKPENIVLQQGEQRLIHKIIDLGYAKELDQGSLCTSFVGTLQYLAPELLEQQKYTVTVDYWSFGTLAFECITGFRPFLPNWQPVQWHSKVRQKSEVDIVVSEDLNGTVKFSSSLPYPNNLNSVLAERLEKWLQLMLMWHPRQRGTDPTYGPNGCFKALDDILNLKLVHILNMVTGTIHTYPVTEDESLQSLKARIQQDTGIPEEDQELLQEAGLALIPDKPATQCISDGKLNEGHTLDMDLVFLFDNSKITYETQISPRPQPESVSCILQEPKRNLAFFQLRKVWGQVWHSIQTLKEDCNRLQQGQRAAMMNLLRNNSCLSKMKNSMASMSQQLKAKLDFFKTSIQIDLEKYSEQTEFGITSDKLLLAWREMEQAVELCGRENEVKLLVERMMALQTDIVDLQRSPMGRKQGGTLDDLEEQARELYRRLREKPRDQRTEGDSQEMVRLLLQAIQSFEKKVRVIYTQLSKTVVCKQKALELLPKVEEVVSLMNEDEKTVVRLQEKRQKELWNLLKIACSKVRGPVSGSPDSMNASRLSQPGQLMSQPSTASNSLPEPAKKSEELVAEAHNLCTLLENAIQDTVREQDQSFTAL
The experiment in a line: IKK2 assay (TR-FRET). The format is biochemical. Conditions: ATP 1 μM final, read-out: pIC50 against IKK2 (converted). The procedure, abridged: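 TR-FRET readout (665 nm over 620 nm Eu reference) of GST-IB Ser32/36 phosphorylation after 60 min detection. Reaction: 1 μM ATP, 25 nM substrate, 0.5-5 nM GST-fused IKKβ 1-737 from baculovirus, pH 7.4 HEPES buffer, 1.7% DMSO, 15 min room temperature, EDTA-terminated.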

Structures can show the parent of a compound that is named as a salt.

Take `CCS(=O)(=O)N1CCC(c2c[nH]c3c(C(N)=O)cc(-c4cccc(CNS(=O)(=O)c5cn(C)c(C)n5)c4)cc23)CC1` [Example 378, 5-[3-({[(1,2-dimethyl-1H-imidazol-4-yl)sulfonyl]amino}methyl)phenyl]-3-[1-(ethylsulfonyl)-4-piperidinyl]-1H-indole-7-carboxamide]: the IC50 is greater than 1 µM in assay [1] and no more than 10 µM in assay [2].

For the molecule `CCS(=O)(=O)N1CCC(c2c[nH]c3c(C(N)=O)cc(-c4cccc(CNS(=O)(=O)c5ccccc5)c4)cc23)CC1` [Example 379, 3-[1-(ethylsulfonyl)-4-piperidinyl]-5-(3-{[(phenylsulfonyl)amino]methyl}phenyl)-1H-indole-7-carboxamide], the IC50 is greater than 1 µM in assay [1] and no more than 10 µM in assay [2].

Turning to `CCS(=O)(=O)N1CCC(c2c[nH]c3c(C(N)=O)cc(-c4cccc(CNS(=O)(=O)c5ccc(F)cc5)c4)cc23)CC1` [Example 380, 3-[1-(ethylsulfonyl)-4-piperidinyl]-5-[3-({[(4-fluorophenyl)sulfonyl]amino}methyl)phenyl]-1H-indole-7-carboxamide], the IC50 was no more than 1.5 µM in assay [1] and no more than 10 µM in assay [2].

Regarding `CCc1cc(Br)ccc1S(=O)(=O)NCc1cccc(-c2cc(C(N)=O)c3[nH]cc(C4CCN(S(=O)(=O)CC)CC4)c3c2)c1` [Example 381, 5-[3-({[(4-bromo-2-ethylphenyl)sulfonyl]amino}methyl)phenyl]-3-[1-(ethylsulfonyl)-4-piperidinyl]-1H-indole-7-carboxamide], the IC50 in assay [1] is greater than 1 µM; in assay [2], no more than 10 µM.

As for `CCS(=O)(=O)N1CCC(c2c[nH]c3c(C(N)=O)cc(-c4cccc(CNS(=O)(=O)c5ccc(C(C)(C)C)cc5)c4)cc23)CC1` [Example 383, 5-{3-[({[4-(1,1-dimethylethyl)phenyl]sulfonyl}amino)methyl]phenyl}-3-[1-(ethylsulfonyl)-4-piperidinyl]-1H-indole-7-carboxamide], the IC50 in assay [1] was no more than 1.5 µM; in assay [2], no more than 10 µM.

`CCS(=O)(=O)N1CCC(c2c[nH]c3c(C(N)=O)cc(-c4cccc(CNS(=O)(=O)c5cccc6nonc56)c4)cc23)CC1` [Example 385, 5-(3-{[(2,1,3-benzoxadiazol-4-ylsulfonyl)amino]methyl}phenyl)-3-[1-(ethylsulfonyl)-4-piperidinyl]-1H-indole-7-carboxamide]: the IC50 in assay [1] was greater than 1 µM; in assay [2], no more than 10 µM.

As for `CCS(=O)(=O)N1CCC(c2c[nH]c3c(C(N)=O)cc(-c4ccc(N5CCN(C)CC5=O)cc4)cc23)CC1` [Example 388, 3-[1-(ethylsulfonyl)-4-piperidinyl]-5-[4-(4-methyl-2-oxo-1-piperazinyl)phenyl]-1H-indole-7-carboxamide], the IC50 in assay [1] is greater than 1 µM; in assay [2] it was no more than 10 µM.

On to `CCS(=O)(=O)N1CCC(c2c[nH]c3c(C(N)=O)cc(-c4ccc(N5CCN(C(C)=O)CC5)nc4)cc23)CC1` [Example 389, 5-[6-(4-acetyl-1-piperazinyl)-3-pyridinyl]-3-[1-(ethylsulfonyl)-4-piperidinyl]-1H-indole-7-carboxamide trifluoroacetate], for which the figures for the IC50 in assay [1] and in assay [2] were greater than 1 µM and no more than 10 µM, respectively.

As for `CCS(=O)(=O)N1CCC(c2c[nH]c3c(C(N)=O)cc(-c4ccc(CNOC)cc4)cc23)CC1` [Example 390, 3-[1-(ethylsulfonyl)-4-piperidinyl]-5-(4-{[(methyloxy)amino]methyl}phenyl)-1H-indole-7-carboxamide], the values for the IC50 in assay [1] and in assay [2] were greater than 1 µM and no more than 10 µM, respectively.

Turning to `CCS(=O)(=O)N1CCC(c2c[nH]c3c(C(N)=O)cc(-c4csc(CN5CCC(N6CCCC6)CC5)c4)cc23)CC1` [Example 392, 3-[1-(ethylsulfonyl)-4-piperidinyl]-5-(5-{[4-(1-pyrrolidinyl)-1-piperidinyl]methyl}-3-thienyl)-1H-indole-7-carboxamide trifluoroacetate], the figures for the IC50 in assay [1] and in assay [2] were greater than 1 µM and no more than 10 µM, respectively.

For the molecule `CCS(=O)(=O)N1CCC(c2c[nH]c3c(C(N)=O)cc(-c4csc(CN5CCC[C@H]5C(F)(F)F)c4)cc23)CC1` [Example 393, 3-[1-(ethylsulfonyl)-4-piperidinyl]-5-(5-{[(2S)-2-(trifluoromethyl)-1-pyrrolidinyl]methyl}-3-thienyl)-1H-indole-7-carboxamide trifluoroacetate], the values for the IC50 in assay [1] and in assay [2] were greater than 1 µM and no more than 10 µM, respectively.

In the case of `CC(C)S(=O)(=O)N1CCC(c2c[nH]c3c(C(N)=O)cc(-c4csc(CN5CCC[C@@H]5CO)c4)cc23)CC1` [Example 394, 5-(5-{[(2R)-2-(hydroxymethyl)-1-pyrrolidinyl]methyl}-3-thienyl)-3-{1-[(1-methylethyl)sulfonyl]-4-piperidinyl}-1H-indole-7-carboxamide], the IC50 in assay [1] is no more than 1.5 µM; in assay [2] it was no more than 10 µM.

As to `CC(C)S(=O)(=O)N1CCC(c2c[nH]c3c(C(N)=O)cc(-c4csc(CN5CC[C@H](O)C5)c4)cc23)CC1` [Example 395, 5-(5-{[(3S)-3-hydroxy-1-pyrrolidinyl]methyl}-3-thienyl)-3-{1-[(1-methylethyl)sulfonyl]-4-piperidinyl}-1H-indole-7-carboxamide], the values for the IC50 in assay [1] and in assay [2] were no more than 1.5 µM and no more than 10 µM, respectively.

For the molecule `CC(C)S(=O)(=O)N1CCC(c2c[nH]c3c(C(N)=O)cc(-c4csc(CN(C)C5CCCC5)c4)cc23)CC1` [Example 396, 5-(5-{[cyclopentyl(methyl)amino]methyl}-3-thienyl)-3-{1-[(1-methylethyl)sulfonyl]-4-piperidinyl}-1H-indole-7-carboxamide], the IC50 was no more than 1.5 µM in assay [1] and no more than 10 µM in assay [2].

As to `CC(C)S(=O)(=O)N1CCC(c2c[nH]c3c(C(N)=O)cc(-c4csc(CN(C)CCO)c4)cc23)CC1` [Example 397, 5-(5-{[(2-hydroxyethyl)(methyl)amino]methyl}-3-thienyl)-3-{1-[(1-methylethyl)sulfonyl]-4-piperidinyl}-1H-indole-7-carboxamide], the IC50 in assay [1] was no more than 1.5 µM; in assay [2] it was no more than 10 µM.

`C=CCN(C)Cc1cc(-c2cc(C(N)=O)c3[nH]cc(C4CCN(S(=O)(=O)CC)CC4)c3c2)cs1` [Example 399, 3-[1-(ethylsulfonyl)-4-piperidinyl]-5-(5-{[methyl(2-propen-1-yl)amino]methyl}-3-thienyl)-1H-indole-7-carboxamide]: the results for the IC50 in assay [1] and in assay [2] were no more than 1.5 µM and no more than 10 µM, respectively.

Regarding `CCS(=O)(=O)N1CCC(c2c[nH]c3c(C(N)=O)cc(-c4csc(CN(C)Cc5c(C)n[nH]c5C)c4)cc23)CC1` [Example 400, 5-(5-{[[(3,5-dimethyl-1H-pyrazol-4-yl)methyl](methyl)amino]methyl}-3-thienyl)-3-[1-(ethylsulfonyl)-4-piperidinyl]-1H-indole-7-carboxamide], the IC50 was no more than 1.5 µM in assay [1] and no more than 10 µM in assay [2].

`CCS(=O)(=O)N1CCC(c2c[nH]c3c(C(N)=O)cc(-c4csc(CN(C)CC#N)c4)cc23)CC1` [Example 401, 5-(5-{[(cyanomethyl)(methyl)amino]methyl}-3-thienyl)-3-[1-(ethylsulfonyl)-4-piperidinyl]-1H-indole-7-carboxamide]: the IC50 in assay [1] is no more than 1.5 µM; in assay [2], no more than 10 µM.

With `CCC(C)N(C)Cc1cc(-c2cc(C(N)=O)c3[nH]cc(C4CCN(S(=O)(=O)CC)CC4)c3c2)cs1` (stereo not drawn) [Example 402, 3-[1-(ethylsulfonyl)-4-piperidinyl]-5-(5-{[methyl(1-methylpropyl)amino]methyl}-3-thienyl)-1H-indole-7-carboxamide], the IC50 was no more than 1.5 µM in assay [1] and no more than 10 µM in assay [2].

On to `CCS(=O)(=O)N1CCC(c2c[nH]c3c(C(N)=O)cc(-c4csc(CN(C)C5CCC5)c4)cc23)CC1` [Example 404, 5-(5-{[cyclobutyl(methyl)amino]methyl}-3-thienyl)-3-[1-(ethylsulfonyl)-4-piperidinyl]-1H-indole-7-carboxamide trifluoroacetate], for which the IC50 is no more than 1.5 µM in assay [1] and no more than 10 µM in assay [2].

In the case of `CCS(=O)(=O)N1CCC(c2c[nH]c3c(C(N)=O)cc(-c4csc(CN(C)C(C)(C)C)c4)cc23)CC1` [Example 406, 5-(5-{[(1,1-dimethylethyl)(methyl)amino]methyl}-3-thienyl)-3-[1-(ethylsulfonyl)-4-piperidinyl]-1H-indole-7-carboxamide trifluoroacetate], the IC50 in assay [1] was no more than 1.5 µM; in assay [2] it was no more than 10 µM.
